Reference: patent publication US7312248B2, “Control of parasites in animals by the use of novel trifluoromethanesulfonanilide oxime ether derivatives” (Schering-Plough Animal Health Corporation, priority 2004, dated 2007)
Read-outs that look alike come from different tables or passages of the source.

Tests used:
Assay type in all cases: in vivo
Haemonchus contortus = Haemonchus contortus larvacidal (larval development) assay; conditions: 144 h, read-out: Haemonchus contortus LD99
How it was run: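 Nematode eggs placed on agar containing compound (12 two-fold dilutions, final 0.024–50 μg/ml) and left 6 days to develop to L3. LD99 is the lowest concentration inhibiting development of 99% of larvae, derived from well titre (2^n−1) and top concentration.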

[1] = test system: cat flea (Ctenocephalides felis); assay: Ctenocephalides felis adulticide assay: dose response (LC50)
Source text: c) Ctenocephalides felis Adulticide Assay: C. felis Dose Response
The purpose of this example was to determine the LC50 when cat fleas were contacted with a glass surface treated with sample compounds or formulations prepared as described above. Mortality of fleas was defined as follows: fleas were considered dead if they didn't move or were on their sides and unable to walk or right themselves. LC50: Lethal Concentration 50—concentration of glass surface treatment at which 50% of the cat fleas were killed. The test species was the cat flea (Ctenocephalides felis). The strain used was obtained from external suppliers as pupae and held in the laboratory under testing conditions until the adults had emerged. Fifteen (15) fleas were used in a minimum of four replicates for each dose level (total of 60 fleas per dose level). The insects were selected to be in the adult life stage, aged between 3 and 7 days post emergence.
The compounds to be tested were dissolved in acetone just prior to testing. Samples of compounds were stored in a refrigerator (5±1° C.) unless otherwise specified. During the mortality testing, the temperature was maintained at 25+1° C. Humidity was maintained at 75±5%. The base (area=159 mm^2) of a 100 mL glass Erlenmeyer (conical) flask provided the treatment surface. Flasks were pretreated with Coatasil™ glass treatment to maximise bio-availability of test compounds by preventing them from binding to the glass surface.
Six dose levels (concentrations) of test sample, in the form of a serial dilution, were derived from a pilot study and covered a range that produced very low to very high mortality. The base of the 100 mL Erlenmeyer flask was treated with 0.5 mL of test sample in acetone and gently swirled. This volume was sufficient to cover the base of the flask. Flasks were left to dry for 24 hours before flea exposure. Adult cat fleas were lightly anaesthetised by cooling and then placed into a sorting chamber, which allowed fleas to revive and jump into the Erlenmeyer flasks. Fifteen (15)adult cat fleas were collected in each flask. The top of the flasks were then covered in Parafilm™ and small holes made to allow gas exchange. A 0.5 mL volume of acetone was applied to the base of an Erlenmeyer flask and the testing proceeded in the same manner described above. Cat fleas in the treatment containers were held under testing conditions for 24 hours. Mortality resulting from the treatments was recorded at 8 and 24 hours.

[2] = test system: cat flea (Ctenocephalides felis); assay: whole plant or invertebrate; conditions: Ctenocephalides felis
How it was run: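 Single-dose screen at 1.26 μg/cm^2: acetone solution dried for 24 h on a Coatasil-treated 159 mm^2 flask base, then 15 adult cat fleas aged 3-7 days per flask, four or more replicates, acetone control. Percent dead, meaning not moving or unable to right themselves, recorded after 8, 24 and/or 48 h at 25 °C and 75% RH.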

[3] = test system: Brown Dog Tick (Rhipicephalus sanguineus); assay: Rapid screening protocol for topical application on brown dog ticks; conditions: 48 h; Laboratory 2 F data
Experimental: d) Rapid Screening Protocol for Topical Application on Brown Dog Ticks (Rhipicephalus sanguineus)
The aim of the test was to determine the presence of significant acaricidal activity in sample compounds or formulations when applied topically on brown dog ticks. A tick was defined as dead if it gave no apparent response when touched lightly and observed for 1 minute. […] Both permethrin and fipronil were employed as reference compounds. The insect species tested was the Brown Dog Tick (Rhipicephalus sanguineus). Mixed sex adult ticks were used for tests. The strain used was cultured by von Berky Veterinary Services, Woody Point, QLD, AU and supplied as unfed adult ticks (mixed sex). Ticks were maintained in controlled conditions (temp. 18°+2° C., humidity 75±5% RH).
Temperature was maintained at 25±1° C. and the humidity was ambient. […] Ticks were each treated on the abdomen with 1 μL of a single dose level of test sample in acetone; ten ticks were treated with solvent only (acetone) in each test. Tests were replicated 4 times (total of 40 ticks treated). […]

[4] = test system: Brown Dog Tick (Rhipicephalus sanguineus); assay: Dose response protocol for topical application on brown dog ticks (LD50); conditions: 24 h mortality
Experimental: e) Dose response protocol for topical application on brown dog ticks (Rhipicephalus sanguineus): The test determines the level of insecticidal activity of sample compounds or formulations when applied topically on brown dog ticks. Sample compounds were stored prior to use in a freezer (−5±1° C.), unless otherwise specified.
• Mortality: A tick is defined as dead after it gives no apparent response when touched lightly or gently breathed upon, while observed for 30 seconds. • LD50 (Lethal Dose 50): The dose of a topically applied treatment at which 50% of the dog ticks are killed. • Reference compound: To assess an experimental compound for significant acaricidal activity a single dose level is chosen, which is based upon known results from previous experiments using a commercially available active i.e., a reference compound. The reference compound selected is one in common use, and one that has a similar mode of action against the Brown Dog Tick (i.e., the test species). • Recovery container: A recovery container consists of a 500 ml round plastic container measuring 115 mm diameter and 70 mm height, with a tight fitting lid that has 10 small (˜1 mm) holes inserted for air exchange. A 90 mm diameter piece of filter paper was placed on the bottom of the container and moistened with 1 mL of de-stilled water.
Adult, mixed sex, Brown Dog Ticks (Rhipicephalus sanguineus) were reared as follows: (i) cultured, (ii) transferred unfed, to a testing laboratory, and (iii) then maintained under controlled conditions (i.e., temp. 18°±2° C., humidity 75±5% RH). The ticks used were selected for vigor prior to testing, i.e., capable of actively walking and responsive to being touched or gently breathed upon.
During the testing, the temperature was maintained at 25±1° C., and the humidity was ambient. Seven dose levels (concentrations) of sample compound, in the form of serial dilutions in acetone, were derived from a pilot study and covered a range that produced very low to very high mortality. Groups of ten ticks were treated topically (on the abdomen) with 1 μL of a single dose level of the sample compound. Each test was replicated four times, i.e., employing a total of 40 ticks per dose level of each sample compound. As a control, ten ticks were treated with solvent only (acetone) for each test. Following the treatment, the ticks were held in recovery containers maintained under appropriate rearing conditions for 24 hours. Mortality resulting from the treatments was recorded at 24 hours. […] Press, London (1971).]

[5] = 24 h, read-out: C. felis Mortality (%) 24 h, 24 h, Laboratory 1 A data
[6] = 24 h, read-out: C. felis Mortality (%) 24 h, 24 h, Laboratory 2 B data
[7] = 48 h, read-out: C. felis Mortality (%) 48 h, 48 h, Laboratory 2 B data
[8] = 8 h, read-out: C. felis Mortality (%) 8 h, 8 h, Laboratory 1 A data

Row | SMILES | IC99 (Haemonchus contortus) [µg/mL] | C. felis LC50 ([1]; Laboratory 1 C data) [μg/cm^2] | C. felis LC50 ([1]; Laboratory 2 D data) | mortality at 1.26 µg/cm2, 1.26 µg/cm2 [2, 5] [%] | R. sanguineus Mortality (%) 48 h [3] [%] | mortality at 1.26 µg/cm2, 1.26 µg/cm2 [2, 6] [%] | mortality at 1.26 µg/cm2, 1.26 µg/cm2 [2, 7] [%] | R. sanguineus LD50 [4] [μg/tick] | mortality at 1.26 µg/cm2, 1.26 µg/cm2 [2, 8] [%]
1 | CC/C(=N\Oc1ccc(Cl)cc1)c1cc(Cl)ccc1NS(=O)(=O)C(F)(F)F [Compound 128, N-{4-chloro-2-[1-(4-chlorophenoxyimino)propyl]phenyl}trifluoromethanesulfonamide] | 0.4 | 0.08 | 0.05 μg/cm^2 | 100 | 85 | – | – | – | –
2 | C/C(=N\OC(C)C)c1ccc(C(F)(F)F)cc1NS(=O)(=O)C(F)(F)F [Compound 235] | – | – | 0.2^D μg/cm^2 | – | – | 100 | 100 | 2.3 | –
3 | CCON=C(c1ccccc1)c1cc(Cl)ccc1NS(=O)(=O)C(F)(F)F (single isomer, unassigned) [Compound 177, N-[4-chloro-2-(ethoxyiminophenylmethyl)phenyl]trifluoromethanesulfonamide] | – | 0.3 | – | 100 | – | – | – | 17.6 | –
4 | C/C(=N\OC1C=CCCC1)c1cc(Cl)ccc1NS(=O)(=O)C(F)(F)F (stereo not drawn) [Compound 175] | – | 0.1 | – | 100 | – | – | – | 4.0 | –
5 | CCC(CC)O/N=C(\C)c1cc(Cl)ccc1NS(=O)(=O)C(F)(F)F [Compound 174] | – | 0.1 | – | 100 | – | – | – | 2.9 | –
6 | C=CCO/N=C(\C)c1ccc(C(F)(F)F)cc1NS(=O)(=O)C(F)(F)F [Compound 241, N-[2-(1-allyloxyiminoethyl)-5-trifluoromethylphenyl]trifluoromethanesulfonamide] | – | – | 0.1^D μg/cm^2 | – | – | 100 | 100 | 1.9 | –
7 | CCCCO/N=C(\C)c1cc(Cl)ccc1NS(=O)(=O)C(F)(F)F [Compound 244] | – | – | 0.07^D μg/cm^2 | – | – | 100 | 100 | 3.0 | –
8 | CC/C(=N\OCc1ccc(Br)cc1)c1cc(Cl)ccc1NS(=O)(=O)C(F)(F)F [Compound 75] | 0.9 | 0.3 | – | 78 | 77 | – | – | – | 37
9 | C/C(=N\OC(C)C1CC1)c1cc(Cl)ccc1NS(=O)(=O)C(F)(F)F (stereo not drawn) [Compound 253] | – | – | 1.2^D μg/cm^2 | – | – | 100 | 100 | 3.4 | –
10 | CCC(C)O/N=C(\C)c1cc(Cl)ccc1NS(=O)(=O)C(F)(F)F (stereo not drawn) [Compound 242] | – | – | 0.1^D μg/cm^2 | – | – | 100 | 100 | 3.1 | –
11 | CC/C(=N\OC1CCCCC1)c1cc(Cl)ccc1NS(=O)(=O)C(F)(F)F [Compound 157] | – | 0.3 | – | 100 | – | – | – | 5.7 | –
12 | CC(C)=CCO/N=C(\C)c1cc(Cl)ccc1NS(=O)(=O)C(F)(F)F [Compound 249] | – | – | 1.3^D μg/cm^2 | – | – | 100 | 100 | 3.3 | –
13 | CC/C(=N\OC(C)CC)c1cc(Cl)ccc1NS(=O)(=O)C(F)(F)F (stereo not drawn) [Compound 243] | – | – | 0.1^D μg/cm^2 | – | – | 100 | 100 | 3.8 | –
14 | CCCCO/N=C(\CC)c1cc(Cl)ccc1NS(=O)(=O)C(F)(F)F [Compound 245] | – | – | 0.09^D μg/cm^2 | – | – | 100 | 100 | 3.9 | –
15 | CC/C(=N\OCC1CCCCC1)c1cc(Cl)ccc1NS(=O)(=O)C(F)(F)F [Compound 104, N-[4-chloro-2-(1-cyclohexylmethoxyiminopropyl)phenyl]trifluoromethanesulfonamide] | 10 | 0.3 | 1.6 μg/cm^2 | 100 | 100 | – | – | – | –
16 | C/C(=N\Oc1cccc(Cl)c1)c1cc(Cl)ccc1NS(=O)(=O)C(F)(F)F [Compound 132] | 1.6 | 0.2 | – | 100 | 80 | – | – | – | –
17 | CC/C(=N\OCCC(C)C)c1cc(Cl)ccc1NS(=O)(=O)C(F)(F)F [Compound 247] | – | – | 0.1^D μg/cm^2 | – | – | 100 | 100 | 4.6 | –
18 | CC/C(=N\OCc1ccc(C(F)(F)F)cc1C(F)(F)F)c1cc(Cl)ccc1NS(=O)(=O)C(F)(F)F [Compound 76, N-{2-[1-(2,4-bistrifluoromethylbenzyloxyimino)propyl]-4-chlorophenyl}trifluoromethanesulfonamide] | 0.3 | 0.2 | 0.05 μg/cm^2 | – | 80 | – | – | – | 100
19 | CC/C(=N\OCc1ccccc1C(F)(F)F)c1cc(Cl)ccc1NS(=O)(=O)C(F)(F)F [Compound 6] | 1.3 | 0.1 | 0.03 μg/cm^2 | 96 | 82 | – | – | – | 69
